Experimental findings from paper PMC12808100, “The non-catalytic DNA polymerase ε subunit is an NPF motif recognition protein” (Nature Communications, 2025) are described below.

In assay [1] the target is His6-avi-MBP-tagged POLE2. The assay is described as follows: Single-point nHU-MS with recombinant His6-avi-MBP-POLE2 bait, Jurkat extract. The class given is binding, human. The settings on record: significant apparent affinity of endogenous prey protein for POLE2 bait; single-point nHU-MS; Figure S11. The text has this:
So far, our study only focused on a few hand-picked NPF motifs and studied them as short synthetic peptides. However, many other proteins may be present in the proteome that could bind to POLE2 and their putative NPF motifs are embedded in their natural structures that can greatly affect their binding properties. To investigate interactions between POLE2 and intact, full length proteins proteome-wide, we used nHU-MS experiments with recombinant His6-avi-MBP-tagged POLE2 as bait and purified His6-avi-MBP as a control. Even though we are aware that this recombinant POLE2 may bind to NPF motifs with a somewhat altered affinity, we assumed that this would affect all NPF motif-mediated interactions equally, allowing an unbiased affinity ranking of all identified partners. Single point nHU measurements were performed at 26 μM POLE2 concentration and the recovered supernatant was measured by label free proteomic MS measurements (Fig. 3A, Supplementary Figs. 8A, 9, Supplementary Data 1).
Single-point nHU experiments with protein baits were carried out nearly identically with two key modifications. First, the resin saturation step was carried out by mixing 50 μl streptavidin resin with 0.5−1 ml 50 μM biotinylated protein solution and the mixture was incubated for 1.5 h at 4 °C with constant agitation. Second, instead of using estimated bait concentrations, we measured it experimentally. An extra aliquot of resin stock was prepared alongside the nHU samples that were identically processed that were used to eluate the immobilized proteins under harsh conditions, in order to experimentally quantify the Cbait by using densitometry of Coomassie stained SDS-PAGE that included a protein calibration series. For this, 50 μl bait-saturated resin aliquots were mixed with 200 μl 4x Laemmli Sample Buffer (120 mM Tris-HCl pH 7, 8% SDS, 100 mM DTT, 32% glycerol, 0.004% bromphenol blue, 1% β-mercaptoethanol), instead of cell extract. After 15 min incubation at 95 °C, these samples were analyzed by SDS-PAGE using protein calibration standard, made from recombinant MBP. Densitometry was carried out after Coomassie staining on raw Tif images by using Fiji ImageJ 1.53c and experimental bait concentration were determined by adjusting for molecular weight differences between MBP and MBP-POLE2 constructs.
Samples were digested overnight at 37 °C.

The subject of assay [2] is endogenous proteins of Jurkat extract. In words: Single-point nHU-MS with biotinylated NPF motif peptide baits, proteome-wide. The following applies: FigureS2 Volcano; prey FBXO3. The class given is binding, human. The source says:
To identify the partners of NPF motifs, we used the native holdup (nHU) assay that was recently developed by our team (Fig. 1B). The holdup approach has been extensively used to determine equilibrium dissociation constants of transient interactions mediated by PDZ and SH3 domains, 14-3-3, and human papilloma virus E6 proteins, and even nucleic acid-protein interactions[7],[30]–[35]. In the nHU experiments, a purified bait molecule, or a control compound, is immobilized on a resin at high concentration (typically 10 μM, or higher) and these resin stocks are subsequently mixed with dilute cell extracts. […] This liquid phase contains the unbound prey molecules at near binding equilibrium that can be quantified using selective and quantitative analytical approaches, such as mass spectrometry. Therefore, proteins that interact with the bait molecule will appear to be depleted in the solvent phase and by measuring its relative concentration compared to the control nHU experiment, the degree of binding (θ) can be determined that can be converted to apparent steady-state dissociation constants, according to:1 θ=1−Ifree/Itot=Cbait/Cbait+Kapp where Itot and Ifree are the measured total and bait-depleted equilibrium mass spectrometry total ion intensities of prey proteins, Cbait is the bait molecule concentration and Kapp is the apparent dissociation constant. […]

On to TSETSK [SYNJ1], for which the pKapp_sign in assay [1] is listed as 4.4418. The log2FC in assay [2] is given as -0.5002.
